# Measurements as given in patent US6372739B1, “Compounds and methods for modulation of estrogen receptors” (Signal Pharmaceuticals, Inc., priority 1998, dated 2002).
# Counter-ions that a name gives are not always drawn. Like-named read-outs stand apart in the source and are kept apart here.
# What was measured:
# [1] = system: IL-6; experiment: Human bone cell co-culture system, IL-6 production; format: cell-based
# Method: The generation of osteoblastic cells from normal adult femoral travecular bone from patients without evidence of metabolic bone disease was carried out as previously described (Kung Sutherland et al., Osteoporosis International 5:334-343, 1995; Wong et al., J Bone Miner 5:803-813, 1990). Bone fragments were cleaned of adherent tissue and blood and cultured for 4 weeks in medium containing Ham's F12 supplemented with 28 mM HEPES, pH 7.4, 10% FCS, 1.1 mM CaCl2, 2 mM glutamine, and 1% antibiotic-antimycotic agent. Upon confluency, the cells were harvested and immortalized using a retroviral vector (pLXSN) containing the neomycin resistance gene and the human papillomaviral (HPV18) E6 and E7 concogenes (International Journal of Oncology 6:167-174, 1995). The immortalized osteoblastic cells were selected in medium containing G418 (600 μg/ml).
# The human U937 moncytic cell line (cloned from the commercially available cells by serial dilution) was maintained in RPMI 1640 medium containing 10% FCS and 1% antibiotic-antimycotic agent.
# The co-culture system was established as follows. Human osteoblastic cells were plated in 96-well dishes at a density of 5×10^3 cells/well. U937 cells in RPMI medium (5×10^4 cells/well) were layered over the osteoblasts. The formation of osteoclast-like cells was induced with 100 nM PMA. […]
# [2] = target: T1, human recombinant ER-α (Homo sapiens, UniProt P03372); experiment: Solid phase ER binding assay (3H-estradiol competition), ER-α; settings: HCl salt; similar to estradiol
# T1 sequence (P03372 1-595): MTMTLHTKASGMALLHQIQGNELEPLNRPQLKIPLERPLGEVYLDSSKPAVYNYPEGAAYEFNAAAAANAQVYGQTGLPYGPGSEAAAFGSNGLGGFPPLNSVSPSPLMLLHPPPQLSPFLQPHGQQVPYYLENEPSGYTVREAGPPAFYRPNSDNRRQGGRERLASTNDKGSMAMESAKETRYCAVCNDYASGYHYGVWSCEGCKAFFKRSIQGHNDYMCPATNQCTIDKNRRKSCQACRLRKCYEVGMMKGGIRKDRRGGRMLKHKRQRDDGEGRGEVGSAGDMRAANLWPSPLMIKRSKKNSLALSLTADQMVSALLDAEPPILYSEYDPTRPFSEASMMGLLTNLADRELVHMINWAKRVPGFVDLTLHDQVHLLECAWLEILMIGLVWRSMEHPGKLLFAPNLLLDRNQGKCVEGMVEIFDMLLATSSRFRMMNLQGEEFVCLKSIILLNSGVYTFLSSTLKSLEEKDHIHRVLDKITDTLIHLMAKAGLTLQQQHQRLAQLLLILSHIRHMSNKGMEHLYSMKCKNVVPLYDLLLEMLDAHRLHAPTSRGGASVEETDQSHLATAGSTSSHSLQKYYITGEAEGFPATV
# [3] = target: human recombinant ER-β (Homo sapiens, UniProt Q92731); experiment: Solid phase ER binding assay (3H-estradiol competition), ER-β
# [4] = 28-day uterine bioassay in ovariectomized rats; settings: rat, in vivo
# Method: All three componds were administered daily by s.c. injection. Estrogen prevented the uterine weight loss caused by ovariectomy by increasing the uterine weight by 550%. […] Raloxifene.HCl caused about a 70% increase in uterine weight which has been previously reported (Grese et al., supra; Ashby et al., supra). […] Thus, this compound has significant potential for the prevention and/or treatment of cancer and osteoporosis, as well as cardiovascular diseases and neurodegenerative diseases such as Alzheimer's disease.
# [5] = 3-day immature rat uterine bioassay; settings: s.c.
# [6] = system: GM-CSF; experiment: Human bone cell co-culture system, GM-CSF production; format: cell-based; settings: co-culture system of Example 8
# Method: The co-culture system was established as follows. Human osteoblastic cells were plated in 96-well dishes at a density of 5×10^3 cells/well. U937 cells in RPMI medium (5×10^4 cells/well) were layered over the osteoblasts. The formation of osteoclast-like cells was induced with 100 nM PMA. To determine the effects of compounds or the neutralizing antibodies to IL-6 (Sigma) and GM-CSF (Pharmingen) on the formation of osteoclast-like cells, the compounds or the antibodies were added 30 minutes prior to the addition of PMA. The cultures were stopped after 96 hrs and processed for histochemical or immunohistochemical analyses.
# Chain of human recombinant ER-β (Q92731 whole entry): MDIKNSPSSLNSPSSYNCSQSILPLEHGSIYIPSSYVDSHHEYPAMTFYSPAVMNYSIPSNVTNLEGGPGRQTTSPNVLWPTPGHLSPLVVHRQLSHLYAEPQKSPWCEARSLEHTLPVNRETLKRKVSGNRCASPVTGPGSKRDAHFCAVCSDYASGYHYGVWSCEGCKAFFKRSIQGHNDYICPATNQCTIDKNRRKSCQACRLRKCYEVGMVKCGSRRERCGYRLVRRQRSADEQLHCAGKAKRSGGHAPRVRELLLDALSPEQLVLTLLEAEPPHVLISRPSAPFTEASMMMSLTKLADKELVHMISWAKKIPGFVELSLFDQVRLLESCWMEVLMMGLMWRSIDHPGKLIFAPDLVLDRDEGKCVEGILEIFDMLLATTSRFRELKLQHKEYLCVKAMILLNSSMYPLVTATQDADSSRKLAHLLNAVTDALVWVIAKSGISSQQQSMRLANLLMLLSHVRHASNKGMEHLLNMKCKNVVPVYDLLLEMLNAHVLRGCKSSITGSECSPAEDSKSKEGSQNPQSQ
smiles,measurement,setting,value
"O=c1oc2cc(O)ccc2c(Cc2ccc(OCCN3CCCCC3)cc2)c1-c1ccccc1 (as salt: HCl) [Compound No. 1, 3-Phenyl-4-[4-(2-{piperidin-1-yl})ethoxy]-benzyl-7-hydroxycoumarin]",melting point,,160 to 161 °C
"O=c1oc2cc(O)ccc2c(Cc2ccc(OCCN3CCCCC3)cc2)c1-c1ccccc1 [Compound No. 1, 3-Phenyl-4-[4-(2-{piperidin-1-yl})ethoxy]-benzyl-7-hydroxycoumarin]",IC50,"[1]; U-937, human osteoblast/U937 co-culture, PMA induced, read-out: IC50 with respect to IL-6",10 nM
same,binding affinity to ER-α (in words),[2],high affinity
same,binding affinity to ER-β (in words),"[3]; HCl salt, similar to estradiol",high affinity
same,Ki,"[3]; competition with 30 nM 3H-estradiol, room temperature, 1 hour, average of at least 3 experiments, read-out: Solid Phase ER Binding Ki, ER-β",7.3 nM
same,increase in uterine weight,"[4]; female, sc, 28 day",~40%
same,uterine liability,[4],does not exhibit significant uterine liability
same,increase in uterine weight,[5],~30%
same,"shape of dose response, uterine weight",[5],bell-shaped dose response
"C[C@]12CC[C@@H]3c4ccc(O)cc4CC[C@H]3[C@@H]1CC[C@@H]2O [Estradiol, 17β-estradiol]",effect on production of IL-6,[1]; co-culture system of Example 8,suppress the production of IL-6
same,effect on production of GM-CSF,[6],reduced the production of GM-CSF
same,increase in uterine weight,[5],4.5 fold
"COc1ccc2c(Cc3ccc(OCCN4CCCCC4)cc3)c(-c3ccccc3)c(=O)oc2c1 [Example 4, 3-Phenyl-4-[4-(2-{piperin-1-yl})ethoxy]-benzyl-7-methoxycoumarin]",melting point,,171 to 172 °C
"CCN(CC)CCOc1ccc(-c2c(-c3ccccc3)c(=O)oc3ccccc23)cc1 [L-20, reference compound]",Ki,"[3]; ER binding assay of Example 14, read-out: ER Binding Assay ER-β (Ki)",> 10000 nM
O=C(c1ccc(OCCN2CCCCC2)cc1)c1c(-c2ccc(O)cc2)sc2cc(O)ccc12 [Raloxifene HCl],"shape of dose response, uterine weight",[5],bell-shaped dose response
same,increase in uterine weight,[5]; 1 mg/kg dose,up to 50%
